Assay [1] concerns the target T1, MAP kinase-activated protein kinase 2 (Homo sapiens, UniProt P49137). The assay is described as follows: Inhibition of human recombinant MK2.
Target sequence in this assay (P49137 whole entry): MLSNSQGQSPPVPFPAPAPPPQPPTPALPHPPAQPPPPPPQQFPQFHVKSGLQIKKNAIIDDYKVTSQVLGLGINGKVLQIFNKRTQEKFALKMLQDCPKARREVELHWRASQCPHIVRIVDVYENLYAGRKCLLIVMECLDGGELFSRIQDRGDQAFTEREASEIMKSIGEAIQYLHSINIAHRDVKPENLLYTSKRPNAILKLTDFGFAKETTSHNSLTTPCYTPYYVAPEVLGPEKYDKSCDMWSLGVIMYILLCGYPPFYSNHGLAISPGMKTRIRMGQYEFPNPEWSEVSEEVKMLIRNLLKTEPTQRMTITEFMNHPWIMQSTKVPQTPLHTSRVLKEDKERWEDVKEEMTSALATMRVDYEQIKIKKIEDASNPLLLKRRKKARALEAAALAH
In assay [2] the target is T2, Serine/threonine-protein kinase Chk1 (Homo sapiens, UniProt O14757).
T2 sequence (O14757 whole entry): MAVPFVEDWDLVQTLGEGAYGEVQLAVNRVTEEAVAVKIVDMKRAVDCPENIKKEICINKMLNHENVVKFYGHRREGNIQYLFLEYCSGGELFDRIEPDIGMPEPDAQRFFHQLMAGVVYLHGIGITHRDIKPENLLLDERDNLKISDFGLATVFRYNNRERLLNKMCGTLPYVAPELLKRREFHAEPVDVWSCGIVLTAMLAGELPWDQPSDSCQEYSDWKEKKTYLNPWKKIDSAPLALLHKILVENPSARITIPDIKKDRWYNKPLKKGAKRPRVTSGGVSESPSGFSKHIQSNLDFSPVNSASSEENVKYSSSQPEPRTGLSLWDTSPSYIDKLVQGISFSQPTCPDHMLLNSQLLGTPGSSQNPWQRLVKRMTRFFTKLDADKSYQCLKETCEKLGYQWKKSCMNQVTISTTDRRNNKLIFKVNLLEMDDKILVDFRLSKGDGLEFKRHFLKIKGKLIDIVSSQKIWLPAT
The assay is described as follows: Inhibition of CHK1 (unknown origin).

Assay [3] has as its target T1, MAP kinase-activated protein kinase 2. The assay can be described thus: Inhibition of human recombinant MK2 at 10 uM.
Target sequence in this assay (P49137 whole entry, looked up): as the sequence (P49137 whole entry) above
Assay [4] concerns the target Tyrosine-protein kinase Lck (Homo sapiens, UniProt P06239). The assay is described as follows: Inhibition of human LCK.
Assay [5] concerns the target Casein kinase I isoform delta (Homo sapiens, UniProt P48730). The assay can be described thus: Inhibition of human CSNK1D.
The target of assay [6] is T3, Testis-specific serine/threonine-protein kinase 2 (Homo sapiens, UniProt Q96PF2).
T3 sequence (Q96PF2 whole entry): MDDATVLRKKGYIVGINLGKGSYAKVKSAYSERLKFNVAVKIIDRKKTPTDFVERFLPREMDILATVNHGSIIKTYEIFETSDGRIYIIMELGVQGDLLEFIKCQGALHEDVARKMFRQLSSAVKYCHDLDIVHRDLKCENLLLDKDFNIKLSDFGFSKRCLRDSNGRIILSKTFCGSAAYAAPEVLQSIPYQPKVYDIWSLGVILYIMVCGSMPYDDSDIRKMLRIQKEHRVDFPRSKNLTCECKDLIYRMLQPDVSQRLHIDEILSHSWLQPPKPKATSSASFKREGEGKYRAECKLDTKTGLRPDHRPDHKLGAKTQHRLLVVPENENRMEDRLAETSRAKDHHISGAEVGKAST
The assay is described as follows: Inhibition of human TSSK2.

The target of assay [7] is Tyrosine-protein kinase JAK2 (Homo sapiens, UniProt O60674). The assay is described as follows: Inhibition of human JAK2.
Assay [8] addresses Insulin-like growth factor 1 receptor (Homo sapiens, UniProt P08069). The assay can be described thus: Inhibition of human IGF1R.
The target of assay [9] is Mitogen-activated protein kinase 1 (Homo sapiens, UniProt P28482). The assay is described as follows: Inhibition of human ERK2.
The target of assay [10] is Hepatocyte growth factor receptor (Homo sapiens, UniProt P08581). The assay can be described thus: Inhibition of human MET.
In assay [11] the target is RAC-alpha serine/threonine-protein kinase (Homo sapiens, UniProt P31749). The assay can be described thus: Inhibition of human AKT1.
Assay [12] deals with T4, Inhibitor of nuclear factor kappa-B kinase subunit beta (Homo sapiens, UniProt O14920).
T4 sequence (O14920 whole entry): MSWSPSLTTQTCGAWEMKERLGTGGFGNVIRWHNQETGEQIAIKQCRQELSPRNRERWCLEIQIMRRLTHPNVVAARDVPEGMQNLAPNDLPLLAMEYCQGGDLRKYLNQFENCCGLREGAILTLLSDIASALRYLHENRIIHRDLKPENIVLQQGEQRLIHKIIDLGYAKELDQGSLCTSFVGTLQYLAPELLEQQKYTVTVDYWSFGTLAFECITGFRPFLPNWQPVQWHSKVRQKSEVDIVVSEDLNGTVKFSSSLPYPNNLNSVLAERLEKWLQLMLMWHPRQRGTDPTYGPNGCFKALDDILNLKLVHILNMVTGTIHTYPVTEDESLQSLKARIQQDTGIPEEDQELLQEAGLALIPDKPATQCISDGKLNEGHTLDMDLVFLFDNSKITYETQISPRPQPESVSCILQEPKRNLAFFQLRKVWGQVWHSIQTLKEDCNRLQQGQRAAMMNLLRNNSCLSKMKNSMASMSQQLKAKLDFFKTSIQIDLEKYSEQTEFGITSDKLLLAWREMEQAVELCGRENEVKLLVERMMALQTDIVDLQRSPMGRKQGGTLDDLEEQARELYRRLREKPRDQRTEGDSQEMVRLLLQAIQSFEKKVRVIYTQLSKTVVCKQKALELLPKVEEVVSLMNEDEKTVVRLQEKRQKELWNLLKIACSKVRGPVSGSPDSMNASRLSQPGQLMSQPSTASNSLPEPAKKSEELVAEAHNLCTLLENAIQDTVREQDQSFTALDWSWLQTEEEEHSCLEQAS
The assay can be described thus: Inhibition of human IKKB.

IC50 and inhibition data for 16 compounds are collected here from ChEMBL document CHEMBL2380230, “Potency switch between CHK1 and MK2: discovery of imidazo[1,2-a]pyrazine- and imidazo[1,2-c]pyrimidine-based kinase inhibitors” (Bioorg Med Chem Lett, 2013).

Bounds are passed on as bounds.

Mitogen-activated protein kinase 1, sequence (P28482 whole entry): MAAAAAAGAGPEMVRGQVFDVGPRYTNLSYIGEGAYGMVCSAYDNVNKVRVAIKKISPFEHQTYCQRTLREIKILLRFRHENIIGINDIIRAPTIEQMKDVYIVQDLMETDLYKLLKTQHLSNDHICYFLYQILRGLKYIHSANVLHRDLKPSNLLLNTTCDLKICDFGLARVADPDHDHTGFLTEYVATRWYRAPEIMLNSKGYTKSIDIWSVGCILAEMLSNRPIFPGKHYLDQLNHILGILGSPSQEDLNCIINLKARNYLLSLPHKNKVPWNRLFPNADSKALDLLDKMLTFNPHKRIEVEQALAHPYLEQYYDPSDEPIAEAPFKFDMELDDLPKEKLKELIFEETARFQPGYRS
RAC-alpha serine/threonine-protein kinase, sequence (P31749 whole entry): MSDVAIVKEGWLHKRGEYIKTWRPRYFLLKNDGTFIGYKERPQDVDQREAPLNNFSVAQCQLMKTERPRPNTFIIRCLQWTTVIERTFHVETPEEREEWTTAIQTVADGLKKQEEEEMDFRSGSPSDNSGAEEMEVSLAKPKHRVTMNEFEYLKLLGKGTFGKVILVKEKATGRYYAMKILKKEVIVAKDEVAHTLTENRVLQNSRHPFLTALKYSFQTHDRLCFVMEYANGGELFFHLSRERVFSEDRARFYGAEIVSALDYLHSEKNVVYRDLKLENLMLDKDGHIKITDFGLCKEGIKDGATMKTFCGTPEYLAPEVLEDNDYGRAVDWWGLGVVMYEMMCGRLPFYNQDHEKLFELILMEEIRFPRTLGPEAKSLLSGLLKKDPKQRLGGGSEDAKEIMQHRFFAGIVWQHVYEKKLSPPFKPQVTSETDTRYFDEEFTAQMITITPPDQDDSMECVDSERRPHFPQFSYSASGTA
Hepatocyte growth factor receptor, sequence (P08581 whole entry): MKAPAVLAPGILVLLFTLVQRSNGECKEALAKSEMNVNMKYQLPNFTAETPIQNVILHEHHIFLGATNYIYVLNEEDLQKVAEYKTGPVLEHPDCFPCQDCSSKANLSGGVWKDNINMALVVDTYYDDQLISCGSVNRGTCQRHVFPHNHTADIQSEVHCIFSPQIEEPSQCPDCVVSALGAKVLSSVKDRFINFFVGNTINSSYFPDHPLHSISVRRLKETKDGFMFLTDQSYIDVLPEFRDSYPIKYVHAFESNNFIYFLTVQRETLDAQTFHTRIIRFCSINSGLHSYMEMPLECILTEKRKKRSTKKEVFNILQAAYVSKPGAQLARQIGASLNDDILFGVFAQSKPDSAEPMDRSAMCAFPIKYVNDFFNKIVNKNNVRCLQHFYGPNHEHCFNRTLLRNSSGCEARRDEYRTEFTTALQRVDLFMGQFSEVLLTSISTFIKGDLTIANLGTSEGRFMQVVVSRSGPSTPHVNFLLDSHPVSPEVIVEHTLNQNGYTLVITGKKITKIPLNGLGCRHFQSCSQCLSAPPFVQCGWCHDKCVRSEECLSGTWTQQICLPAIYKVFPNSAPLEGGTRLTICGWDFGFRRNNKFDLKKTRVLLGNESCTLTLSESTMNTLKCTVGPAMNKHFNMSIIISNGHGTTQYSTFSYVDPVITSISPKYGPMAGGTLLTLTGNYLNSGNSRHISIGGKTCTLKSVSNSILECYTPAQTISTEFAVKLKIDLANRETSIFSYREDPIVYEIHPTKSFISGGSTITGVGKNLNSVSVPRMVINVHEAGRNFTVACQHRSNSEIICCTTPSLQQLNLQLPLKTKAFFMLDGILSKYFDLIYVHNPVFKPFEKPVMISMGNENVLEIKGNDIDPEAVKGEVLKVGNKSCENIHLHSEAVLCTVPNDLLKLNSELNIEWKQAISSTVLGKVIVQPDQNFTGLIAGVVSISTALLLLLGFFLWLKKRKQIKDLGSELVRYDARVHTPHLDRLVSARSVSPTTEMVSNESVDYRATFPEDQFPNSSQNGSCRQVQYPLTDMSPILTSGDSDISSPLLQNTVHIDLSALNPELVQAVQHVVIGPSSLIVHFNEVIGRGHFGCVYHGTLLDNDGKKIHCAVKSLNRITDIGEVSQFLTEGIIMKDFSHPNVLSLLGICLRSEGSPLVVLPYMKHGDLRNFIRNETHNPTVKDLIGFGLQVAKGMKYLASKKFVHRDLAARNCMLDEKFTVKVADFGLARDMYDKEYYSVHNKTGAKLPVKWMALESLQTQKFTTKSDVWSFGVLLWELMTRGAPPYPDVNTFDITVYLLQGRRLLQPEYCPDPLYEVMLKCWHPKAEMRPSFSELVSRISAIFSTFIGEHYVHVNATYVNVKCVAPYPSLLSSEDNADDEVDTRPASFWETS
Insulin-like growth factor 1 receptor, sequence (P08069 31-736 limits assumed): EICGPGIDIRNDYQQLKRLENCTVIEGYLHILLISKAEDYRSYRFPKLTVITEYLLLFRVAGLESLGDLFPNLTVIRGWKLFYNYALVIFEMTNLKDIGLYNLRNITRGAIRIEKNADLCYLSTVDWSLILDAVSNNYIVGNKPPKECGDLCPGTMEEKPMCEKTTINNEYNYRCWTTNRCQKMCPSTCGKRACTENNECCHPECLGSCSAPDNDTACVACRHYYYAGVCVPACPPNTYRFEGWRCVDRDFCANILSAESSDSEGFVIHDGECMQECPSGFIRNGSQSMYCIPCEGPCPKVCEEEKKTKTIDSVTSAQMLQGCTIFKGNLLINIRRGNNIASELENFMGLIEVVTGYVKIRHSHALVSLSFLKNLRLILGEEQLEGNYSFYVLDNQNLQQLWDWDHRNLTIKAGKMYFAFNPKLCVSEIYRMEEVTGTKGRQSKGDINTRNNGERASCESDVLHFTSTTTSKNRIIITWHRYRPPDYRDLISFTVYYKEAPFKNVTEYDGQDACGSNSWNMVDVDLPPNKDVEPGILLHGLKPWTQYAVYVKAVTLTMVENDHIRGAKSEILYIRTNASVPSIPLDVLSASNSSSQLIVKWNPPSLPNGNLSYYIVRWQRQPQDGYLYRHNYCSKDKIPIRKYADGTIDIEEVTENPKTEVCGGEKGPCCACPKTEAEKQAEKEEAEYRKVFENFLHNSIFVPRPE
Insulin-like growth factor 1 receptor, sequence (P08069 741-1367 limits assumed): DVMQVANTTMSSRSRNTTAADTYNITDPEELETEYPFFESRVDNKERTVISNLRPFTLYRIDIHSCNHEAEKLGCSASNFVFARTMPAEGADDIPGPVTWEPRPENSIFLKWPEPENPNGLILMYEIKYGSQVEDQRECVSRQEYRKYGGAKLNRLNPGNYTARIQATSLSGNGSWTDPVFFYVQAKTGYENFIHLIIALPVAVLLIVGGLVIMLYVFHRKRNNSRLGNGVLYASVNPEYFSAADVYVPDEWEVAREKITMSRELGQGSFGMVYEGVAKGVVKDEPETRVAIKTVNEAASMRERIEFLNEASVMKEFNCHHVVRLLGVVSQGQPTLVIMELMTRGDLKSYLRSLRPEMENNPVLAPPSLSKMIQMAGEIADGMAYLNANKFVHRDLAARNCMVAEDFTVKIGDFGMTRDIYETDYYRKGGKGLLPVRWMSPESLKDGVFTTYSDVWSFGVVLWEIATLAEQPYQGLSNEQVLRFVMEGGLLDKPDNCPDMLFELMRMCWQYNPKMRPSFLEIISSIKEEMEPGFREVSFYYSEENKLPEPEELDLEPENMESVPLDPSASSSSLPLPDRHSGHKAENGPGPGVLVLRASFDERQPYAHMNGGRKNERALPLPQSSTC
Casein kinase I isoform delta, sequence (P48730 whole entry, canonical isoform): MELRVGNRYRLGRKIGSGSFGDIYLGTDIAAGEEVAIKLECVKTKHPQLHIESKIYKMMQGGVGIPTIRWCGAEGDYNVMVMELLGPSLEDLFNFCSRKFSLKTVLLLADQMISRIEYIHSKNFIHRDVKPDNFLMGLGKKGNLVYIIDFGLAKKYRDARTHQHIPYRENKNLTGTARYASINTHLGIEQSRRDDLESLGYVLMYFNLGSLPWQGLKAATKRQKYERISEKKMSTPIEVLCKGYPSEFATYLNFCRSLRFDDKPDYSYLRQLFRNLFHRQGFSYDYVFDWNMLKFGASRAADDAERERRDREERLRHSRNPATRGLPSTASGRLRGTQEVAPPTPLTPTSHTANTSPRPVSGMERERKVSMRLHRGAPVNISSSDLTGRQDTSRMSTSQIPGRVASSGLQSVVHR
Tyrosine-protein kinase Lck, sequence (P06239 whole entry, canonical isoform): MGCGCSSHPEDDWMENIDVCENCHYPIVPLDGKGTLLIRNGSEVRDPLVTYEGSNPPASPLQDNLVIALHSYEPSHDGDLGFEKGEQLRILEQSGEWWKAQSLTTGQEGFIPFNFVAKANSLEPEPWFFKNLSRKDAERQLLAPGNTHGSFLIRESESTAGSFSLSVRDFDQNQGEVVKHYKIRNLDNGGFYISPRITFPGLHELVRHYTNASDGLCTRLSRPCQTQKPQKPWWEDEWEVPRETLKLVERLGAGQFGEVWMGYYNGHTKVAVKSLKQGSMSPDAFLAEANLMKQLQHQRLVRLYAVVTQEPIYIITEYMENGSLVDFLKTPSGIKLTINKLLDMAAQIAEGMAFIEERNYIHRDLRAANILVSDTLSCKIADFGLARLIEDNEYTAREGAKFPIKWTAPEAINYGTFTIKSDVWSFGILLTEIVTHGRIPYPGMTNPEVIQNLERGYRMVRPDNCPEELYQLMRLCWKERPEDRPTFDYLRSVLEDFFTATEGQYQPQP

`CN[C@H]1CC[C@H](Nc2ncc(C(N)=O)n3cc(-c4ccc(Cl)cc4)nc23)CC1`: the IC50 in assay [1] worked out at 0.4 µM; in assay [2], 0.89 µM.
Regarding `CN1CCC(Nc2ncc(C(N)=O)c3nc(-c4ccc(Cl)cc4)cn23)CC1`, the inhibition in assay [3] came out at 69%. In assay [2], this compound gave an IC50 of 50 µM.
With `NC(=O)c1ncc(N[C@H]2CCCNC2)c2nc(-c3ccc(Cl)cc3)cn12`, the figures for the IC50 in assay [1] and in assay [2] were 0.84 µM and 0.018 µM, respectively.
Taken in the same sequence, the figures for `NC(=O)c1cnc(N[C@H]2CCCNC2)c2nc(-c3ccc4ccccc4c3)cn12` were 0.91 µM and 0.023 µM.
`NC(=O)c1cnc(NC2CCNCC2)c2nc(-c3ccc(Cl)cc3)cn12`: the values for the IC50 in [1] and in assay [2] were 4.15 µM and 0.69 µM, respectively.
As to `NC(=O)c1cnc(N[C@H]2CC[C@H](N)CC2)c2nc(-c3ccc(Cl)c(Cl)c3)cn12`, the half-maximal inhibitory concentration (IC50) in assay [1] turned out to be 0.82 µM; in assay [2] it was 5.07 µM.
Regarding `NC(=O)c1cnc(N[C@H]2CC[C@H](N)CC2)c2nc(-c3ccc(Cl)cc3)cn12`, the half-inhibitory concentration (IC50) in assay [4] is 1 µM; in assay [5] it was 12 µM; in assay [6] it was 12 µM; in assay [7], 13 µM; in [8], 12 µM; in assay [9], more than 30 µM. In addition, the IC50 in assay [10], in [11] and in [12] was more than 30 µM each time.
In the case of `NC(=O)c1cnc(N[C@H]2CC[C@H](N)CC2)n2cc(-c3ccc(Cl)cc3)nc12`, the 50% inhibitory concentration (IC50) in assay [1] came out at 4 µM; in assay [2] it was 50 µM.
The like results for `NCCCNc1ncc(C(N)=O)n2cc(-c3ccc(Cl)cc3)nc12` were, in that order, 4.09 µM and 0.29 µM.
Regarding `NC(=O)c1cnc(Nc2cccnc2)c2nc(-c3ccc(Cl)cc3)cn12`, the concentration for half-maximal inhibition (IC50) in [1] is 10 µM.
Consider `NC(=O)c1cnc(N[C@@H]2CCNC2)n2cc(-c3ccc(Cl)cc3)nc12`, for which the inhibition in assay [3] is 56%. This compound registered an IC50 in assay [2] of 42.1 µM.
As for `NC(=O)c1ncc(N[C@H]2CC[C@H](N)CC2)c2nc(-c3ccc(Cl)cc3)cn12`, the IC50 in assay [1] came out at 1.98 µM.
Take `NC(=O)c1cnc(N[C@H]2CCCNC2)c2nc(-c3ccc(F)cc3)cn12`: the half-maximal inhibitory concentration (IC50) in assay [1] was determined as 0.91 µM; in assay [2], 0.027 µM.
Take `NC(=O)c1cnc(N[C@H]2CC[C@@H](N)CC2)c2nc(-c3ccc(Cl)cc3)cn12`: in assay [1], the IC50 came to 1.9 µM.
Consider `NC(=O)c1cnc(N[C@H]2CCCNC2)n2cc(-c3ccc(Cl)cc3)nc12`, for which, in assay [3], the inhibition was found to be 67%.
Take `NC(=O)c1cnc(NCC2CCCNC2)n2cc(-c3ccc(Cl)cc3)nc12` (stereo not given): the inhibition in assay [3] is 61%. The same compound returned an IC50 in [2] of 50 µM.

What is called IC50 is the concentration that gives 50% inhibition. By inhibition is commonly meant the relative decrease from the control value, in per cent.
